In test [1] the test system is β-N-Acetylglucosaminidase. The class given is biochemical. Particulars: substrate incubated with β-N-Acetylglucosaminidase.
For test [2], the system named is H1N1 A/Brisbane/59/2007. The test can be described thus: Electrochemical assay, 3 electrode system: SG1 cleavage and drug susceptibility. It counts as biochemical, Influenza A virus. The settings on record: 10 ng antiviral premixed 30 min before SG1.
Test [3] relates to membrane free soluble N1 NA (strain H5N1 A/Anhui/1/2005). It counts as biochemical, influenza virus. The settings on record: 10 ng antiviral premixed 30 min before SG1.
The subject of test [4] is H3N2 A/HongKong/8/68. Briefly: Electrochemical assay, 3 electrode system: SG1 cleavage and drug susceptibility. It counts as biochemical, Influenza A virus. The settings on record: 10 ng antiviral premixed 30 min before SG1.
In test [5] the test system is H3N2 A/Aichi/2/1968. The test is described as above. It counts as biochemical, Influenza A virus. Particulars: 10 ng antiviral premixed 30 min before SG1.
For test [6], the system named is N2 NA (strain A/Babol/36/2005). Described as above. The class given is biochemical, influenza virus. The settings on record: 10 ng antiviral premixed 30 min before SG1.
The test system of test [7] is bacterial NA (BNA) from Clostridium perfringens. The class given is biochemical. The settings on record: antiviral premixed with bacterial NA, then SG1.
In test [8] the test system is α-L-Fucosidase. The class given is biochemical. The settings on record: substrate incubated with α-L-Fucosidase.
In test [9] the test system is β-Galactosidase. The settings on record: substrate incubated with β-Galactosidase.
Test [10] relates to α-Mannosidase. It counts as biochemical. Particulars: substrate incubated with α-Mannosidase.
Test [11] deals with β-Glucuronidase. The settings on record: substrate incubated with β-Glucuronidase.
The test system of test [12] is H3N2 NA. The class given is biochemical, influenza virus. Particulars: H3N2 NA overnight.
In test [13] the test system is H1N1 virus. Briefly: Hydrolysis of sialylglucose by intact influenza virus, amperometric glucose measurement. It counts as biochemical. Particulars: for current compared with glucose standard solution: H1N1 virus.
Test [14] deals with influenza NA. Briefly: Hydrolysis of the probe by influenza NA followed by mass spectroscopy. The class given is biochemical, influenza virus.
Test [15] deals with H5N1 NA. It counts as biochemical, influenza virus. Particulars: H5N1 NA overnight.
Test [16] relates to H3N2 virus. Briefly: Hydrolysis of sialylglucose by intact influenza virus, amperometric glucose measurement. The class given is biochemical. The settings on record: H3N2 virus overnight.
The test system of test [17] is H1N1 virus. Briefly: Hydrolysis of the probe by intact influenza virus followed by mass spectrum. It counts as biochemical. Particulars: pH 5.68, 37° C.
In test [18] the test system is H3N2 virus. The test is described as above. It counts as biochemical. Particulars: pH 5.68, 37° C.
The mark [19] stands for this setting: H1N1 virus 1 h, 1 mM substrate, pH 5.68, 37° C.

Entries after “also recorded” stand apart in the source; their conditions may differ.

As to `CC(=O)NC1[C@@H](Oc2ccc(CO[C@@H]3OC(CO)[C@@H](O)[C@H](O)C3O)cc2)OC(CO)[C@@H](O)[C@@H]1O` (some centres unmarked) [Substrate 24], in test [1], the “i, value of electrochemical assay” value is listed as 11.1 ± 2.3 10^−8 A.
In the case of `CC(=O)N[C@H]1[C@H]([C@H](O)[C@H](O)CO)OC(C(=O)O)=C[C@@H]1N=C(N)N` [Zanamivir], the “inhibition of NA (glucose release from SG1) by antiviral” value in test [2] is on record as “completely inhibited; also recorded: Glucose was not released”; in [3] it was “completely inhibited”; in test [4], “completely inhibited; also recorded: Glucose was not released”; in test [5], “completely inhibited; also recorded: Glucose was not released”; in [6], “completely inhibited”. In addition, the “inhibition of bacterial NA (glucose release from SG1) by antiviral” value in test [7] is “NA still cleaved SG1; also recorded: glucose was released”.
Take `CCOC(=O)C1=C[C@@H](OC(CC)CC)[C@H](NC(C)=O)[C@@H](N)C1` [Oseltamivir]: the “inhibition of NA (glucose release from SG1) by antiviral” value in test [2] is “completely inhibited; also recorded: Glucose was not released”; in test [3], “completely inhibited”; in [4], “completely inhibited; also recorded: Glucose was not released”; in test [5] it was “completely inhibited; also recorded: Glucose was not released”; in test [6], “completely inhibited”.
As for `CC1O[C@@H](OCC2OC(O)C(O)[C@@H](O)[C@@H]2O)C(O)[C@@H](O)[C@@H]1O` (some centres unmarked) [Substrate 25], the “i, value of electrochemical assay” value in test [8] is listed as 44.5 ± 2.9 10^−8 A.
`OCC1O[C@@H](OCc2ccc(O[C@H]3OC(CO)[C@@H](O)[C@H](O)C3O)cc2)C(O)[C@@H](O)[C@@H]1O` (some centres unmarked) [Substrate 20]: the “i, value of electrochemical assay” value is reported as 10.2 ± 0.6 10^−8 A in test [9] and 81.0 ± 1.8 10^−8 A in test [10].
Turning to `OCC1O[C@@H](OCc2ccc(O[C@@H]3OC(CO)[C@H](O)[C@H](O)C3O)cc2)C(O)[C@@H](O)[C@@H]1O` (some centres unmarked) [Substrate 21], the entries for the “i, value of electrochemical assay” value in test [9] and in test [11] were 77.9 ± 7.3 10^−8 A and 10.4 ± 1.3 10^−8 A, respectively.
Turning to `CC(=O)N[C@H]1[C@H]([C@H](O)[C@H](O)CO)O[C@@](OC[C@H]2O[C@H](O)[C@H](O)[C@@H](O)[C@@H]2O)(C(=O)O)C[C@@H]1O` [sialylglucose, 5-acetamido-3,5-dideoxy-D-glycero-α-D-galacto-non-2-ulopyranosylonate-(2→6) α-D-glucopyranoside], the “Calculated Glucose Concentration” value was 102.3 µM in test [12]; 116.2 µM in test [13] (setting [19]); 126.6 µM in test [13] (H1N1 virus 5 h); 50.66 µM in test [13] (H1N1 virus overnight); 66.47 µM in test [15]; 76.09 µM in test [16]. Besides, the Current stood at 1.123E−07 A in test [12]; 1.262E−07 A in test [13] (setting [19]); 1.366E−07 A in [13] (H1N1 virus 5 h); 6.066E−08 A in test [13] (H1N1 virus overnight); 7.647E−08 A in [15]; 8.609E−08 A in test [16]. In addition, in test [13] (H1N1 virus overnight), the “current compared with 1 h and 5 h samples” value is given as “significantly lower current”. In addition, the “current compared with glucose standard solution” value in test [13] (hydrolysis stopped at 1 h) and in test [13] (hydrolysis stopped at 5 h) was approximately 100 µM in each case. For the same molecule, the “hydrolysis of the probe by NA (mass spectrum)” value in [14] (pH 5.68, 37° C., overnight) is “substrate peak could no longer be observed”; in test [14] (pH 7.40, room temperature, overnight incubation) it was “incomplete hydrolysis”. The “hydrolysis by intact influenza virus (mass spectrum)” value in test [17] and in [18] was “complete hydrolysis” throughout.
On to `O=C(O)C1O[C@@H](Oc2ccc(CO[C@@H]3OC(CO)[C@@H](O)[C@H](O)C3O)cc2)C(O)[C@@H](O)[C@@H]1O` (stereo partly drawn) [Substrate 22, 1-(4-Hydroxymethylphenyl)-β-D-glucopyronuronic acid-1-α/β-D-glucopyranoside], for which the entries for the “i, value of electrochemical assay” value in [11], in test [8] and in test [10] were 65.1 ± 4.6 10^−8 A, 9.7 ± 3.5 10^−8 A and 12.3 ± 1.2 10^−8 A, respectively.
As for `CC1O[C@@H](Oc2ccc(CO[C@@H]3OC(CO)[C@@H](O)[C@H](O)C3O)cc2)C(O)[C@@H](O)[C@@H]1O` (some centres unmarked) [Substrate 26], in test [8], the “i, value of electrochemical assay” value is 25.2 ± 2.9 10^−8 A.
Take `CC(=O)NC1[C@H](Oc2ccc(CO[C@@H]3OC(CO)[C@@H](O)[C@H](O)C3O)cc2)OC(CO)[C@@H](O)[C@@H]1O` (some centres unmarked) [Substrate 23]: the “i, value of electrochemical assay” value in test [1] is given as 28.5 ± 4.0 10^−8 A.

The values above are taken from US10408783B2, “Electrochemical methods and compounds for the detection of enzymes” (GEORGIA STATE UNIVERSITY RESEARCH FOUNDATION, INC., priority 2014, dated 2019).
